From ChEMBL document CHEMBL5370659 (J Med Chem, 2023)
Converted amounts (≈) assume the structure as drawn. One block for each molecule: values may come before it.

How the values were obtained:
[1] = Metabolic stability in human hepatocytes assessed as intrinsic clearance; type: ADME, cell-based, Hepatocyte; details: read-out: CLH
[2] = Apparent permeability across basal to apical side in human Caco-2 cells at pH 6.5/7.4 measured at 5 uM by LC-MS/MS analysis; type: ADME, cell-based; details: Caco-2, pH 6.5
[3] = Plasma protein binding in rat; type: ADME, cell-free; details: read-out: PPB (converted)
[4] = target: T1, Tryptophan 5-hydroxylase 2 (Homo sapiens, UniProt Q8IWU9); assay: Inhibition of recombinant MBP-tagged full length human THP2 using L-Trp as substrate assessed as formation of 5-HTP by measuring fluorescent property
T1 sequence (Q8IWU9 whole entry): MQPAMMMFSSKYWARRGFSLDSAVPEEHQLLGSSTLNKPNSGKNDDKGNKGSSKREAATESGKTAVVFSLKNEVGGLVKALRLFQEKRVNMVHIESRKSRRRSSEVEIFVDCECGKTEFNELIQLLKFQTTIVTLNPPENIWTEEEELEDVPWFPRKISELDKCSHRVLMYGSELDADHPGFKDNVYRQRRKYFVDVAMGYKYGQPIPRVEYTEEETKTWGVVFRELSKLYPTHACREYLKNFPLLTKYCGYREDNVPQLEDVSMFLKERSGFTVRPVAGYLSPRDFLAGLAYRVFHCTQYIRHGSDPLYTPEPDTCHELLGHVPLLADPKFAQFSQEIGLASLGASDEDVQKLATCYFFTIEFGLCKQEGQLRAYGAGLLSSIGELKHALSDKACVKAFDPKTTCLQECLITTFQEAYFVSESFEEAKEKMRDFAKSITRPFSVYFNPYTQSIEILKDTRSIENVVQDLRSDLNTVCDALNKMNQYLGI

[5] = Aqueous solubility of the compound in pH 7.4 PBS buffer by HPLC-UV analysis; type: physicochemical
[6] = Permeability across basal to apical side in MDCK-MDR1 cells at pH 6.5/7.4 measured at 5 uM by LC-MS/MS analysis; type: ADME, cell-based, Canis lupus familiaris; details: dog, MDCK-MDR1, pH 6.5
[7] = Permeability across apical to basal side in MDCK-MDR1 cells at pH 6.5/7.4 measured at 5 uM by LC-MS/MS analysis; type: ADME, cell-based, Canis lupus familiaris; details: dog, MDCK-MDR1, pH 6.5
[8] = Metabolic stability in rat hepatocytes assessed as half life; type: ADME, cell-based, Hepatocyte
[9] = Plasma protein binding in human; type: ADME, cell-free; details: read-out: PPB (converted)
[10] = Apparent permeability across apical to basal side in human Caco-2 cells at pH 6.5/7.4 measured at 5 uM by LC-MS/MS analysis; type: ADME, cell-based; details: Caco-2, pH 6.5
[11] = Metabolic stability in human hepatocytes assessed as half life; type: ADME, cell-based, Hepatocyte
[12] = target: T2, Tryptophan 5-hydroxylase 1 (Homo sapiens, UniProt P17752); assay: Inhibition of recombinant MBP-tagged full length human THP1 using L-Trp as substrate assessed as formation of 5-HTP by measuring fluorescent property
T2 sequence (P17752 whole entry): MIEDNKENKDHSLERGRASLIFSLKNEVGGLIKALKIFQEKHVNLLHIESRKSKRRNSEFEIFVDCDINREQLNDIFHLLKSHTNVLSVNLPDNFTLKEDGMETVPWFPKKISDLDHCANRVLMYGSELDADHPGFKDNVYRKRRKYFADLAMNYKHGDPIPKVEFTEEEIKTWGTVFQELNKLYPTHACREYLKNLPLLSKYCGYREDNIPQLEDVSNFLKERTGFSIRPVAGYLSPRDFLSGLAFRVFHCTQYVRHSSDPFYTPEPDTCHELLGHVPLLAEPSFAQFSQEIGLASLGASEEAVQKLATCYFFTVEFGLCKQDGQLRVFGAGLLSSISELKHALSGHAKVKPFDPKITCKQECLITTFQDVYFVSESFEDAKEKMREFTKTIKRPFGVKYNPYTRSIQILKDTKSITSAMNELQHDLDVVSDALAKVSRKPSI

[13] = Metabolic stability in rat hepatocytes assessed as intrinsic clearance; type: ADME, cell-based, Hepatocyte; details: read-out: CLH
[14] = Solubility in simulated gastric fluid by HPLC-UV analysis; type: physicochemical
[15] = Solubility in simulated intestinal fluid by HPLC-UV analysis; type: physicochemical

Compound: CCOC(=O)CCCn1c(Cc2cn3cc(C)sc3n2)nc2c1c(=O)[nH]c(=O)n2CC
- IC50 [4]: 26 nM
- IC50 [12]: 107 nM

Compound: CCn1c(=O)[nH]c(=O)c2c1nc(Cc1cn3cc(C)sc3n1)n2CC1CCNCC1
- IC50 [4]: > 10000 nM
- IC50 [12]: > 10000 nM

Compound: CCn1c(=O)[nH]c(=O)c2c1nc(Cc1cn3c(n1)CCCC3)n2Cc1cccc(C(=O)NC[C@H](N)C(=O)O)c1
- IC50 [4]: 176 nM
- IC50 [12]: 1670 nM

Compound: CCn1c(=O)[nH]c(=O)c2c1nc(Cc1cn3cc(C)sc3n1)n2C(C)C
- IC50 [4]: 24 nM
- IC50 [12]: 228 nM

Compound: CCn1c(=O)[nH]c(=O)c2c1nc(Cc1cn3c(n1)CCCC3)n2CC1CCC1
- IC50 [4]: 32 nM
- IC50 [12]: 394 nM

Compound: CCn1c(=O)[nH]c(=O)c2c1nc(Cc1cn3cc(C)sc3n1)n2CC1CCN(C(C)C)CC1
- IC50 [4]: > 10000 nM
- IC50 [12]: > 10000 nM

Compound: CCn1c(=O)[nH]c(=O)c2c1nc(Cc1cn3cc(C)sc3n1)n2CC1CCCCC1
- IC50 [4]: 152 nM
- IC50 [12]: 394 nM

Compound: CCn1c(=O)[nH]c(=O)c2c1nc(Cc1cn3c(n1)CCCC3)n2Cc1cccc(C(=O)NC[C@H](N)C(=O)OC)c1
- IC50 [4]: 58 nM
- IC50 [12]: 880 nM

The next lines start with the values.

- CLint scaled [1]: 19 mL/min/kg
- Papp B→A at 5 µM [2]: 57 ×10⁻⁶ cm/s
- fraction unbound [3]: 0.17
- IC50 [4]: 23 nM
- solubility [5]: 173 µM (≈ 66.5 µg/mL)
- Papp B→A at 5 µM [6]: 54 ×10⁻⁶ cm/s
- Papp A→B at 5 µM [7]: 0.45 ×10⁻⁶ cm/s
- t1/2 [8]: 0.7 h
- fraction unbound [9]: 0.06
- Papp A→B at 5 µM [10]: 1.29 ×10⁻⁶ cm/s
- half-life [11]: 1.12 h
- IC50 [12]: 100 nM
Compound: CCn1c(=O)[nH]c(=O)c2c1nc(Cc1cn3cc(C)sc3n1)n2CC1CC1

- CLint scaled [1]: < 115 mL/min/kg
- Papp B→A at 5 µM [2]: 47.7 ×10⁻⁶ cm/s
- fraction unbound [3]: 0.25
- solubility [5]: 3.7 µM (≈ 1.63 µg/mL)
- half-life [8]: > 1 h
- fraction unbound [9]: 0.23
- Papp A→B at 5 µM [10]: 29.4 ×10⁻⁶ cm/s
- half-life [11]: > 1 h
- CLint scaled [13]: < 115 mL/min/kg
- solubility [14]: 198 µM (≈ 87.1 µg/mL)
- solubility [15]: 12.7 µM (≈ 5.6 µg/mL)
Compound: CCn1c(=O)[nH]c(=O)c2c1nc(Cc1cn3cc(Cl)sc3n1)n2Cc1ccccc1

- CLint scaled [1]: < 115 mL/min/kg
- Papp B→A at 5 µM [2]: 5.7 ×10⁻⁶ cm/s
- fraction unbound [3]: 0.82
- solubility [5]: > 200 µM
- half-life [8]: > 1 h
- fraction unbound [9]: 0.85
- Papp A→B at 5 µM [10]: 9.3 ×10⁻⁶ cm/s
- half-life [11]: > 1 h
- CLint scaled [13]: < 115 mL/min/kg
- solubility [14]: 188 µM (≈ 75.8 µg/mL)
- solubility [15]: > 200 µM
Compound: CCn1c(=O)[nH]c(=O)c2c1nc(Cc1cn3c(n1)CCCC3)n2Cc1ccccc1

- IC50 [4]: 22 nM
- IC50 [12]: 66 nM
Compound: CCn1c(=O)[nH]c(=O)c2c1nc(Cc1cn3cc(C)sc3n1)n2Cc1cccc(C(=O)OC)c1

- IC50 [4]: 69 nM
- IC50 [12]: 690 nM
Compound: CCn1c(=O)[nH]c(=O)c2c1nc(Cc1cn3cc(C)sc3n1)n2CCCC(=O)O

- IC50 [4]: 31 nM
- IC50 [12]: 47 nM
Compound: CCn1c(=O)[nH]c(=O)c2c1nc(Cc1cn3cc(C)sc3n1)n2CC1CCC1

- IC50 [4]: 32 nM
- IC50 [12]: 81 nM
Compound: CCn1c(=O)[nH]c(=O)c2c1nc(Cc1cn3cc(C)sc3n1)n2CC=C(C)C

- IC50 [4]: > 10000 nM
- IC50 [12]: > 10000 nM
Compound: CCn1c(=O)[nH]c(=O)c2c1nc(Cc1cn3cc(C)sc3n1)n2CC(=O)O

- CLint scaled [1]: 315 mL/min/kg
- Papp B→A at 5 µM [2]: 53.9 ×10⁻⁶ cm/s
- fraction unbound [3]: 0.21
- solubility [5]: 35.1 µM (≈ 14.8 µg/mL)
- half-life [8]: 0.217 h
- fraction unbound [9]: 0.24
- Papp A→B at 5 µM [10]: 24.7 ×10⁻⁶ cm/s
- half-life [11]: 0.367 h
- CLint scaled [13]: 514 mL/min/kg
- solubility [14]: 177 µM (≈ 74.4 µg/mL)
- solubility [15]: 48.5 µM (≈ 20.4 µg/mL)
Compound: CCn1c(=O)[nH]c(=O)c2c1nc(Cc1cn3cc(C)sc3n1)n2Cc1ccccc1

- IC50 [4]: 24 nM
- IC50 [12]: 196 nM
Compound: CCn1c(=O)[nH]c(=O)c2c1nc(Cc1cn3cc(C)sc3n1)n2Cc1cccc(C)n1
